Measurements taken from patent publication US7795300B2, “External preparation for skin” (Kuraray Co., Ltd., priority 2003, dated 2010).
Read-outs that look alike come from different tables or passages of the source.

Key:
Normal human melanocytes = assay: Inhibitory action on elongation of dendrites; format: cell-based
Method: According to the following method, inhibitory action on elongation of dendrites was examined using human melanocytes.
(Cell) Normal human melanocytes
(Medium) Basic medium (Medium 154S) to which the following reagents were added
(Reagent) Growth additive: bovine pituitary extract (BPE) (final concentration in the medium: 0.4% v/v), fetus bovine serum (FBS) (final concentration in the medium: 0.5% v/v), human recombinant basic fibroblast growth factor (rFGF-B) (final concentration in the medium: 3 ng/ml), hydrocortisone (final concentration in the medium: 0.18 μg/ml), insulin (final concentration in the medium: 5 μg/ml), transferrin (final concentration in the medium: 5 μg/ml), phorbol 12-myristate 13-acetate (PMA) (final concentration in the medium: 10 ng/ml), heparin (final concentration in the medium: 3 μg/ml), PSA solution (mixed solution at a concentration of penicillin: 50,000 Unit/ml, a concentration of streptomycin: 50 μg/ml, and a concentration of amphotericin B: 12.5 μg/ml. Added 1 ml thereof for 500 ml of the medium.) (Test Method)
Normal human melanocytes were seeded (3,000 cells/well) into a 48-well microplate into which the above medium (198 μl/well) was poured, and cultured at 37° C. After 24 hours, Compound 1 (centaureidin) produced in Production Example 6 was dissolved in dimethyl sulfoxide (DMSO) at final concentrations in the medium of 0 mM (control), 0.1 mM, 0.5 mM, and 1 mM, to obtain sample solutions. To 1 μl of each of those sample solutions, 9 μl of the medium were added. 2 μl of each solution were added into each well of the microplate and culture was continued. After 24 hours from addition of the samples, the length of dendrites was observed.
In the same manner as in Test Example 1, but using extracts produced in Production Examples 1 to 5, sample solutions were prepared so that the final concentration of Compound 1 (centaureidin) in the medium was 0.5 mM, to thereby examine inhibitory action on elongation of dendrites.
In the same manner as in Test Example 1, Compounds 2 to 4 were further examined for inhibitory action on elongation of dendrites under the condition that the final concentration in the medium was 0.5 mM.

melanoma B-16 cells = format: cell-based; conditions: 48 hours
Method: The effect of the combination of a compound (A) and 4-n-butyl resorcinol was studied using melanoma B-16 cells (obtained from Tomita Laboratory at Tohoku University, School of Medicine). MEM (modified Eagle's medium) supplemented with 15% FBS (fetal bovine serum) to which Compound 1 (centaureidin) and 4-butyl resorcinol at various concentrations were added was placed in each well of a microtiter plate. Melanoma B-16 cells were seeded into each well at a dose of 5×10^5 cells/ml and cultured for 48 hours. The cells were collected by means of centrifugal separation and washed twice with the medium, and then the color and number of the cells were judged using scores. Cells cultured without addition of both Compound 1 and 4-n-butyl resorcinol were used as a control, and judgment was carried out based on the following criteria: the color, score 0: the same as the control, score 1: slightly paler than the control, score 2: apparently paler than the control, score 3: cells were almost white, score 4: cells were white; the number of cells, score 0: almost all the cells were dead, score 1: nine-tenth of the cells were dead, score 2: about half the cells were dead, score 3: a few cells were dead, score 4: the number of cells was equal to that of the control. […] Such action is in good accordance with inhibitory action of Compound 1 on dendrites of melanocytes.

[1] = Compounds 2 to 4, final concentration in the medium 0.5 mM, 24 hours
[2] = centaureidin 0.1 mM, 4-n-butyl resorcinol 0 % by mass
[3] = centaureidin 0.5 mM, 4-n-butyl resorcinol 0 % by mass
[4] = normal human melanocytes, 24 hours
[5] = centaureidin 0 mM, 4-n-butyl resorcinol 0.01 % by mass
[6] = centaureidin 0 mM, 4-n-butyl resorcinol 0.1 % by mass
[7] = centaureidin 0 mM, 4-n-butyl resorcinol 0.5 % by mass

Work on COc1c(O)c(OC)c2oc(-c3cc(O)c(O)c(O)c3)c(OC)c(=O)c2c1O [Compound 2, 5,7-dihydroxy-3,6,8-trimethoxy-2-(3,4,5-trihydroxyphenyl)-4H-1-benzopyran-4-one] yielded a Length of dendrite (Normal human melanocytes; [1]) of 34 ± 19 μm.
For COc1cc(OC)c(-c2oc3cc(OC)c(O)c(O)c3c(=O)c2OC)cc1O [Compound 4, 5,6-dihydroxy-3,7-dimethoxy-2-(5-hydroxy-2,4-dimethoxyphenyl)-4H-1-benzopyran-4-one], the Length of dendrite (Normal human melanocytes; [1]) was 31 ± 22 μm.
With COc1ccc(-c2oc3cc(O)c(OC)c(O)c3c(=O)c2OC)cc1O [Compound 1, 5,7-dihydroxy-3,6-dimethoxy-2-(5-hydroxy-4-methoxyphenyl)-4H-1-benzopyran-4-one] the Color of cells (melanoma B-16 cells; [2]) was “score 1”, the Number of cells (melanoma B-16 cells; [2]) was “score 3” and the Color of cells (melanoma B-16 cells; [3]) was “score 1”. The Number of cells (melanoma B-16 cells; [3]) was “score 3”, the “Effect on cell death (in words)” value (melanoma B-16 cells; melanoma B-16 cells cultured with 4-n-butyl resorcinol) was “inhibits cell death” and the Length of dendrite (Normal human melanocytes; centaureidin 0.1 mM final concentration in medium, 24 hours after addition, control (0 mM) 140 ± 29) was 101 ± 15 μm. The Length of dendrite (Normal human melanocytes; centaureidin 0.5 mM final concentration in medium, 24 hours after addition, control (0 mM) 140 ± 29) was 26 ± 8 μm, the Length of dendrite (Normal human melanocytes; centaureidin 1 mM final concentration in medium, 24 hours after addition, control (0 mM) 140 ± 29) was 24 ± 6 μm and the “Concentration at which inhibitory action on elongation of dendrites can be confirmed” value (Normal human melanocytes; [4]) was “at least 0.1 mM”. For the same compound, the “Concentration at which inhibitory action on elongation of dendrites is particularly remarkable” value (Normal human melanocytes; [4]) was at least 0.5 mM and the “Inhibitory action on elongation of dendrites (in words)” value (Normal human melanocytes; normal human melanocytes, 24 hours after addition) was “elongation of dendrites is inhibited”.
Work on CCOc1cc(-c2oc3cc(OC)c(OC)c(OCC)c3c(=O)c2OCC)ccc1OC [Compound 3, 3,5-diethoxy-6,7-dimethoxy-2-(5-ethoxy-4-methoxyphenyl)-4H-1-benzopyran-4-one] yielded a Length of dendrite (Normal human melanocytes; [1]) of 47 ± 28 μm.
In the case of CCCCc1ccc(O)cc1O [4-n-butyl resorcinol], the Color of cells (melanoma B-16 cells; [5]) was “score 1”, the Number of cells (melanoma B-16 cells; [5]) was “score 3” and the Color of cells (melanoma B-16 cells; [6]) was “score 3”. The Number of cells (melanoma B-16 cells; [6]) was “score 2”, the Color of cells (melanoma B-16 cells; [7]) was “score 4” and the Number of cells (melanoma B-16 cells; [7]) was “score 1”.
